Data set [1] in a line: Stability of CEdG to acid-catalyzed depurination and sidechain isomerization. To be noted: 37° C.; for racemization of the sidechain stereocenter / interconversion of isomers: acidic hydrolysis, 1 M AcOH.
Procedure: (§2) A 1.25 mM solution of CEdG-A, B or dG in 100 μL of 1M AcOH (pH 2.4) was stirred at 37° C. Aliquots (10 μl) were removed periodically and added to 40 μL of 2M TEAA (pH 7.0). HPLC product analyses were performed using an Alltech HS HyperPrep 100 BDS C18 8μ column. A gradient of 0 to 4% CH3CN over 5 min was followed by 6.5% CH3CN over 30 min. TEAA (pH 7) was kept constant at 50 mM. The ratio of free base (CEGuanine or Guanine) to intact nucleoside (CEdG or dG) was calculated by integration of the corresponding HPLC peaks (see inset in FIG. 4).
(§3) Purified stereoisomers of synthetic CEdG were subjected to acidic conditions (1 M AcOH at 37° C.) and the extent of released free base and diastereomer interconversion was monitored by HPLC as a function of time.
A further data set deals with calf thymus DNA. Nature of the data set: Artifactual CEdG formation during DNA workup with carbonyl scavenger (calf thymus DNA). Here is the method: (§1) Calf thymus or tissue-extracted DNA (100 μg) was dissolved in 80 μL of autoclaved 18.2 MΩ H2O containing 20 μL of sodium acetate (100 mM, pH 5.5), 20 μL of 1×TBE, 1.5 μL of 50 mM ZnCl2, and 2.37 μL of a 100 mM AG or D-P stock solution. DNA was denatured at 95° C. for 5 min on a PCR heating block and then brought to 4° C. for 5 min. After equilibration to 45° C., 1.5 μL of 10 U/μL nuclease P1 was added. Alkaline phosphatase (4 μL of 8 U/μL), 1 U of bovine phosphodiesterase, and 14 μL of 100 mM CaCl2 were added after 1 hour, and the hydrolysis/dephosphorylation was continued for another 7 hours. DNA concentrations were determined by UV spectroscopy (1 OD260=50 μg/ml) and samples were stored at −80° C. prior to MS analyses. A 5 μL aliquot of digest was diluted to 200 μL and used for quantitation of 2′-deoxyguanosine by HPLC integration using a Beckman C18 reverse phase (25 cm×4.6 mm) column (Fullerton, Calif.). Separation was achieved isocratically using a mobile phase of 6% MeOH, 0.1% acetic acid in water.
Commercial grade calf thymus DNA was used as a model substrate for developing a protocol for CEdG quantitation in double-stranded DNA. […] Concentrations of AG from 0.5 to 50 mM were added prior to workup, and CEdG levels were measured in order to determine the optimal concentration required to achieve stable, reproducible levels. […]

Data set [2] relates to DNA extracted from breast tumor or adjacent tissue. Nature of the data set: Artifactual CEdG formation during DNA isolation from human breast tumor and adjacent tissue with carbonyl scavenger. To be noted: 10 mM D-penicillamine in two aliquots during cell lysis/DNA isolation and hydrolysis/dephosphorylation. The protocol: Breast tumor and adjacent normal tissue were obtained from the frozen tumor bank of the City of Hope Pathology Core. A pea-sized section (˜100 mg) of tissue was minced and suspended in 1.2 mL of digestion buffer (100 mM NaCl, 10 mM Tris HCl, pH 8, 25 mM EDTA, pH 8, 0.5% SDS, 0.2 mg/mL proteinase K, 10 mM D-penicillamine) and incubated at 50° C. in a water bath for 12-18 h. DNA was then extracted using an equivalent volume of phenol/chloroform/isoamyl alcohol (25:24:1). The aqueous fraction was separated and 0.5 volumes of ammonium acetate and 2 volumes of 100% ethanol were added. The DNA was spooled, washed twice with 70% ethanol, pelleted, and resuspended in autoclaved 18.2 MΩ water. The enzymatic hydrolysis was carried out as described above.

Data set [3] deals with CEdG levels from tissue-extracted DNA. In words: CEdG in tissue-extracted DNA from organs of Zucker fatty rats. It is filed as in vivo, Zucker rat. As to conditions: liver, pancreas and kidney, after LR-90 treatment. The protocol:
as §1, with “Separation was achieved isocratically using a mobile phase of 6% MeOH, 0.1% acetic acid in water.” left out
The Zucker rat is a morbidly obese, hyperinsulinemic model for Type 2 diabetes resulting from homozygous knockout of the leptin receptor. In order to determine whether elevated circulating glucose in the Zucker rat correlates with increased tissue DNA glycation, CEdG levels from tissue-extracted DNA were measured in selected organs and compared to lean controls and to Zucker rats treated with the glycation inhibitor LR-90. […]

The next data set deals with urinary CEdG. Nature of the data set: Urinary CEdG measurement in type 1 (streptozoticin) diabetic rats given LR-90. It is filed as in vivo, Sprague-Dawley rats. The protocol:
All animal studies were carried out in compliance with the policies outlined in NIH Publication No. 85-23 “Guide for the Care and Use of Laboratory Animals.” Male Sprague-Dawley rats were rendered diabetic by injection of streptozoticin and maintained as previously described.^18 AGE inhibitor LR-90 was administered ad libitum at concentrations ranging from 2.5-50 mg/L. Rats were housed in metabolic cages and urine was collected over a 24 hour period with several drops of toluene to inhibit microbial growth. Urine samples were stored at −80° C. prior to LC-MS/MS analysis for CEdG. The data in FIG. 5 represent 3 replicates from n different animals: non-diabetic controls, n=6; non-diabetic treated with 50 mg/L LR-90, n=5; diabetic control, n=3. For diabetic rats treated with varying doses of LR-90: 2.5 mg/L, n=4; 10 mg/L, n=5; 25 mg/L, n=6; 50 mg/L, n=8.
CEdG was concentrated from urine by solid phase extraction. A 1 ml strata-X-C cartridge was pre-conditioned by the sequential addition of 1 ml MeOH/CH3CN (1:1) followed by 2×1 ml 2% H3PO4. Then ^15N5-CEdG was added as an internal standard (final concentration 5 μg/ml), the sample was acidified with 10 μl of 86% H3PO4, and finally 0.4 mL of urine was introduced via suction filtration. The cartridge was then washed with sequential additions of 1 ml 0.1% H3PO4 and 1 ml MeOH and then dried under vacuum for 1 minute. Finally, CEdG/^15N5-CEdG containing fractions were eluted from the cartridge with 1 mL 3% NH4OH in MeOH:CH3CN (2:8 v/v). The eluent was evaporated to dryness in a centrifugal concentrator and reconstituted with 200 μl 0.1% formic acid prior to LC-MS/MS injection.
CEdG quantification was performed using LC-MS/MS. Measurement of 8-oxo-dG was performed as previously described.^19 CEdG and ^15N5-CEdG (internal standard) were synthesized and purified. Measurements were performed using an Agilent 1100 Capillary LC system (Agilent Technologies, Palo Alto, Calif.) in line with a Micromass Quattro Ultima Triple Quadrupole Mass Spectrometer (Micromass, Beverly, Mass.) operating in positive-ion mode. […] The mass transitions monitored for CEdG and ^15N5-CEdG were 340.3→224.3 and 345.4→229.4 respectively. […] The lower limit of quantitation for CEdG, defined as a peak height of ≥5× baseline noise, was 0.1 ng/ml in the starting solution or 0.2 pg on column.
A diabetic animal model was used to examine the relationship between glycemic status and CEdG levels. […] 8-oxo-dG was also measured as an indicator of oxidative stress in normal and diabetic rats; however, excreted 8-oxo-dG in diabetic animals was not statistically different (P>0.05) from controls.

Another data set can be described thus: physchem. As to conditions: buffer, pH 2.4, half-life for depurination.

Each structure is given as a SMILES string.

From US11179361B2, “Methods of quantifying N2-(1-carboxyethyl)-2′-deoxy-guanosine (CEdG) and synthesis of oligonucleotides containing CEdG” (CITY OF HOPE, priority 2008, dated 2021) come the findings set out here.

As usually defined, the half-life is the time in which the quantity being followed falls by half. High values mean slow decline, low ones rapid decline.

Procedure for physchem: as §2, §3

`CC(Nc1nc2c(ncn2[C@H]2C[C@H](O)[C@@H](CO)O2)c(=O)[nH]1)C(=O)O` (single isomer, unassigned) [CEdG-A, N^2-(1-carboxyethyl)-2′-deoxyguanosine] gave a half-life at 1.25 mM in data set [1] (1 M acetic acid solution, pH 2.4, half-life for depurination, 1 M AcOH (pH 2.4), HPLC) of roughly 12.5 h. The “racemization of the sidechain stereocenter / interconversion of isomers” value in data set [1] is on record as “no interconversion”.
`CC(Nc1nc2c(ncn2[C@H]2C[C@H](O)[C@@H](CO)O2)c(=O)[nH]1)C(=O)O` (single isomer, unassigned) [CEdG-B, N^2-(1-carboxyethyl)-2′-deoxyguanosine]: in data set [1] (1 M AcOH (pH 2.4), HPLC), the half-life for depurination is roughly 8.33 h. Further, in data set [1], the “racemization of the sidechain stereocenter / interconversion of isomers” value is listed as “no interconversion”.
As for `N=C(N)NN` [AG, aminoguanidine], the “measured CEdG levels after mock proteolysis and hydrolysis with scavenger” value in the data set with calf thymus DNA (10 mM AG in two aliquots prior to mock lysis and hydrolysis/dephosphorylation, 80-100 CEdG/10^6 guanines without scavenger) is “drop in measured CEdG levels”. Besides, the “adduct levels after scavenger addition prior to sample processing” value in the data set with calf thymus DNA (10 mM AG, hydrolysis/dephosphorylation only, 60-66 CEdG/10^6 dG without scavenger) is given as 45-50 CEdG/10^6 guanines.
On to `CC(C)(S)[C@@H](N)C(=O)O` [D-penicillamine], for which the “artifactual CEdG formation” value in data set [2] is on record as “artifactual formation was inhibited”.
Take `CC(C)(Oc1ccc(NC(=O)Nc2ccc(Cc3ccc(NC(=O)Nc4ccc(OC(C)(C)C(=O)O)cc4)c(Cl)c3)cc2Cl)cc1)C(=O)O` [LR-90]: the “change of CEdG levels in tissue DNA” value in data set [3] is given as “net lowering of CEdG levels”. Besides, the “adduct level in urine” value with urinary CEdG (diabetic rats, LR-90 25 mg/L) was “comparable to that of non-diabetic animals”. The “decrease in CEdG titer” value in the data set with urinary CEdG (diabetic rats, LR-90 ad libitum 2.5 mg/L, 24 hr urine) amounted to 2.3 fold. For the same compound, the “reduction in CEdG with increasing concentrations” value in the data set on urinary CEdG (diabetic rats, LR-90 ad libitum 2.5-50 mg/L, urine) is listed as “dose dependent reduction in CEdG”. The “effect on CEdG levels in normal controls” value in the data set on urinary CEdG (non-diabetic rats, LR-90 at doses up to 50 mg/L) is “no significant effect”.
`Nc1nc2c(ncn2[C@H]2C[C@H](O)[C@@H](CO)O2)c(=O)[nH]1` [dG, 2′-deoxyguanosine] displayed a half-life at 1.25 mM in the data set “physchem” of 7.33 h.
